From patent publication US20110117210A1, “Therapeutic treatment of human cancers using simple salts of zinc” (priority 2009, published 2011)
Read-outs that look alike come from different tables or passages of the source.

Key:
[1] = system: human colorectal cancer cells; conditions: in-vitro; cited from earlier work
[2] = system: human thyroid cancer cells; conditions: in vitro; cited from earlier work
[3] = system: human prostate cancer cells; conditions: cited from earlier work
[4] = Monitoring of treated cancer patients for manifestations of zinc toxicity; assay type: in vivo, human; conditions: for toxic effects of zinc treatment: oral 600 mg per day 5 months, 900 mg per day 4 months
Procedure: Step 4: Periodically monitoring the status of the afflicted human subject during the therapeutic treatment regimen to confirm that no manifestations of zinc toxicity appear.
The levels of zinc can be monitored in plasma by conventional blood test. A medically normal concentration of zinc in human plasma is about 100 μg/100 mL.
The oncologist or physician should therefore periodically examine their patient in two ways during treatment:
First, the patient should be physically examined on a regular time basis for symptoms of zinc toxicity. As noted above, the risk and dangers of zinc toxicity in humans can occur in both acute and chronic forms; and symptoms of zinc toxicity can appear as nausea, vomiting, loss of appetite, abdominal cramps, diarrhea, and headaches.
Second, samples of the patient's blood should be taken routinely and regularly tested for zinc content using the blood chemistry assays and instrumentation conventionally known and commercially sold for this purpose. Although the values for the individual patient will likely vary considerably, the test results should approximate the medically normal concentration of zinc in human plasma of about 100 μg/100 mL.
In addition, although it is considered very unlikely that any manifestations of zinc toxicity will appear in an individual patient over the duration of therapeutic treatment with the present invention, it is deemed to be proper and necessary to verify that no serious manifestations of zinc toxicity appear regardless of how long the treatment regimen is continued. This is considered to be especially important in view of the likelihood of months and years of therapeutic treatment for some patients. Accordingly, the testing for undesirable zinc effects and toxicity should continue concurrently with and over the full duration of the therapeutic treatment for the patient.

metastatic melanoma = assay: Clinical Case History 2: oral zinc salt treatment of a patient with metastatic melanoma; assay type: in vivo, human; conditions: oral 600 mg per day; for edema of right leg: July 2009 follow-up; for metastatic nodes in abdominal cavity, computer tomography and ultrasound: Oct. 20, 2009, then 900 mg per 24 hours July-October 2009
Procedure: In November 2008, the skin lesion became progressively larger and ulcerated. Then in December 2008, a skin tumor resection and dissection of an enlarged right inguinal lymph nodes were performed, yielding melanoma and inguinal lymph nodes with metastatic disease.
In January 2009, a course of conventional chemotherapy was prescribed and performed for the patient.
The patient was subsequently discharged from the hospital, with a poor prognosis (up to 2 months survival time).
The patient then began orally taking Zinc Picolinate at a 600 mg per day dosage. They orally ingested Zinc Picolinate daily, for 5 months time (from February, 2009 to May, 2009); and then Zinc Sulfate daily for 1 month (June, 2009) at a dose of 600 mg per day (300 mg twice a day with a meal) and for 4 months (from July, 2009 to October, 2009) at a dose of 900 mg per 24 hours (300 mg every 8 hours with a meal).

[5] = 80 mg per day of zinc for 6.3 years on average; cited from earlier work
[6] = target: GSK-3 (Glycogen Synthase Kinase-3) (Homo sapiens, UniProt P49841); conditions: cited from earlier work
HIPK2i cells = conditions: zinc added to culture medium concomitant with adriamycine (ADR); cited from earlier work
[7] = cited from earlier work
[8] = human, cited from earlier work
[9] = after ingesting 4 grams (570 milligrams of elemental zinc); cited from earlier work
[10] = system: squamous cell carcinoma of the lung; assay: Clinical Case History 1: oral zinc salt treatment of a lung cancer patient; assay type: in vivo, human
Procedure: A person was admitted to hospital with a cough, life threatening hemoptysis on Jan. 30, 2009. […] Because the patient denied either operation or chemotherapy, their survival prognosis was poor, up to 2 months survival time.
The patient then began taking Zinc Picolinate, orally, at a dose concentration of 200 mg a day. The patient orally ingested Zinc Picolinate daily, for 5 months (from February, 2009 to July, 2009) at a concentration of 200 mg per day, as a dose of 100 mg ingested twice a day with a meal. To date, the patient has not taken any other chemotherapeutic anticancer drug/agent, nor has undergone any other form of conventional cancer treatment.
The patient has been orally ingesting 200 mg of Zinc Picolinate per day for nearly six calendar months time. […] The patient has been orally taking 600 mg of Zinc Picolinate daily from August, 2009 to October, 2009.

[11] = water and aqueous based fluids, cited from earlier work
[12] = system: lung cancer (squamous cell carcinoma); assay: Clinical Case History 3: oral zinc salt treatment of a lung cancer patient after radiotherapy; assay type: in vivo, human
Procedure: A person afflicted with lung cancer (tumor stenosis of right upper lobe bronchus, squamous cell carcinoma) had been conventionally treated with radiotherapy.
The patient then began to take Zinc Picolinate daily, for 1 month, at a dose of 600 mg per day (orally ingested as 300 mg of Zinc Picolinate taken twice a day with meals). […] The patient continued to take Zinc Picolinate orally from August, 2009 till October, 2009—but at a dose of 900 mg per day (orally ingested as 300 mg of Zinc Picolinate every 8 hours with meals).

[13] = Case History 2, metastatic melanoma
[14] = Case History 2, metastatic melanoma, oral 600-900 mg per day

Chain of GSK-3 (Glycogen Synthase Kinase-3) (P49841 whole entry): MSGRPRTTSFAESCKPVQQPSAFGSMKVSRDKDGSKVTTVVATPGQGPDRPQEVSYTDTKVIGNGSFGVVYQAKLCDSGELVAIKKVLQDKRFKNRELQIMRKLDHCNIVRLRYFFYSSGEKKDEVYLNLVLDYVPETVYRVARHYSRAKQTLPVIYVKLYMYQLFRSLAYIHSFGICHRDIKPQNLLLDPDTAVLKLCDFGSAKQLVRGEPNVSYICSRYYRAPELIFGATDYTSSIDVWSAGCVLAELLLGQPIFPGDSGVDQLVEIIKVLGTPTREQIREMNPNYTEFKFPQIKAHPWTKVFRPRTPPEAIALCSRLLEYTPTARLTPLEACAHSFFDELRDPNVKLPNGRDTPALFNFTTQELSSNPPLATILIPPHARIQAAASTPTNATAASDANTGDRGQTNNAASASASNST

## [Cl-].[Cl-].[Zn+2] [Zinc Chloride]
[1]
  proliferation: inhibits proliferation
[2]
  apoptosis: induces apoptosis
  proliferation: inhibits proliferation

## O=S(=O)([O-])[O-].[Zn+2] [Zinc Sulfate]
[3]
  apoptosis: induce apoptosis
  proliferation: inhibit proliferation
[4]; [13]
  toxic effects of zinc treatment: no toxic effects
[4]; [14]
  weight loss: no weight loss
Metastatic melanoma
  edema of right leg: significantly decreased
  metastatic nodes in abdominal cavity, computer tomography and ultrasound: complete regression

## [O]=[Zn] [zinc oxide]
[5]
  hospitalizations for genitourinary causes: significant increase

## [Zn] [zinc]
[6]
  IC50: 15 µM
HIPK2i cells
  wtp53 transcription activity: restored wtp53 transcription activity
[7]
  level of zinc in diet known to cause chronic zinc toxicosis: > 2,000 ppm
[8]; up to 10 weeks
  intake with reported reductions in a copper-containing enzyme (marker of copper status): approximately 60 mg/day
[8]
  intake associated with chronic effects: low copper status, altered iron function, reduced immune function, reduced high-density lipoproteins: 150-450 mg of zinc per day

## Zinc Gluconate
[9]
  time to severe nausea and vomiting: ≤ 30 min

## Zinc Picolinate
[10]; November 2009, nine months of treatment: 200 mg per day, then 600 mg daily August-October 2009
  signs of cancer progression: no signs of cancer progression
[10]; oral 200 mg per day (100 mg twice a day), 5 months, no other cancer treatment
  clinical outcome of treatment (tumor growth, disease status): suppression of tumor growth and stabilization of the disease
[10]; oral 200 mg per day about 5 months, Jul. 1, 2009, effusion present Jan. 14, 2009
  right pleural effusion, computer tomography: no right pleural infusion
[10]; oral 200 mg per day about 5 months, Jul. 1, 2009 vs Jan. 14, 2009
  changes in the size of enlarged subcarinal lymph nodes, computer tomography: no meaningful changes
[10]; person, oral 200 mg per day (100 mg twice a day) about 5 months, Jul. 1, 2009 vs Jan. 14, 2009
  changes in the size of primary lung tumor, computer tomography: no substantive changes
[11]
  Water Solubility: slightly soluble
[11]; listed as zinc picolinate
  Water Solubility: only slightly soluble
[4]; Case History 1, lung cancer, nine months oral treatment, 200 then 600 mg per day
  weight loss: no weight loss
[4]; Case History 1, lung cancer, oral 200 mg per day, later 600 mg per day
  toxic effects of treatment: no toxic effects
[4]; [13]
  toxic effects of zinc treatment: no toxic effects
[4]; [14]
  weight loss: no weight loss
[4]; Case History 3, lung cancer, oral 600 mg per day 1 month, 900 mg per day 3 months
  zinc toxic effects: no zinc toxic effects
[4]; Case History 3, lung cancer, oral 600-900 mg per day
  weight loss: no weight loss
[4]; three cancer patients (Case Histories 1-3), 200 mg to 900 mg per day, daily for 4-9 months
  zinc toxicity: no zinc toxicity
Metastatic melanoma
  edema of right leg: significantly decreased
  metastatic nodes in abdominal cavity, computer tomography and ultrasound: complete regression
[12]; 600 mg per day 1 month, then 900 mg per day 3 months
  overall physical condition (cough, shortness of breath): significant improvement
[12]; Oct. 21, 2009, 600 mg per day 1 month, then 900 mg per day August-October 2009
  tumor size, bronchoscopy: significant decrease
[12]; Oct. 21, 2009, 90% of bronchial lumen obstructed Jun. 14, 2009, 600 then 900 mg per day
  right upper lobe bronchus previously obstructed by tumor, bronchoscopy: complete opening
[12]; after one month oral 600 mg per day (300 mg twice a day)
  decrease in the size of the lung tumor, X-ray examination: 2 fold
